Source: ChEMBL document CHEMBL3046877, “Synthesis and bioevaluation of novel arylnaphthalene lignans as anticancer agents” (Med Chem Res, 2013)
Activity calls are given as the source filed them. The calls are words filed in the database; no cut-off is given here.

Legend:
[1] = test system: HEK293; assay: Cytotoxicity against Homo sapiens (human) HEK293 cells assessed as decrease in cell growth after 3 days by MTT assay; type: cell-based; details: HEK293, 72 h
[2] = test system: A549; assay: Anticancer activity against Homo sapiens (human) A549 cells assessed as decrease in cell growth after 3 days by MTT assay; type: functional, cell-based; details: A549, 72 h
[3] = test system: KB; assay: Anticancer activity against Homo sapiens (human) KB cells assessed as decrease in cell growth after 3 days by MTT assay; type: functional, cell-based; details: 72 h
[4] = test system: HCT-116; assay: Anticancer activity against Homo sapiens (human) HCT116 cells assessed as decrease in cell growth after 3 days by MTT assay; type: functional, cell-based; details: HCT-116, 72 h
[5] = test system: SW480; assay: Anticancer activity against Homo sapiens (human) SW480 cells assessed as decrease in cell growth after 3 days by MTT assay; type: functional, cell-based; details: SW480, 72 h
[6] = test system: KB; assay: Induction of apoptosis in Homo sapiens (human) KB cells assessed as plasma membrane blebbing at 5 to 10 uM after 72 hr by AO/EB double staining based fluorescence microscopic analysis; type: functional, cell-based
[7] = test system: KB; assay: Induction of apoptosis in Homo sapiens (human) KB cells assessed as increase in Bax expression at 5 to 15 uM after 72 hr by western blot analysis; type: functional, cell-based
[8] = test system: KB; assay: Induction of apoptosis in Homo sapiens (human) KB cells assessed as decrease in Bcl-2 expression at 5 to 15 uM after 72 hr by western blot analysis; type: functional, cell-based

SMILES	IC50 [2] [µM]	IC50 [3] [µM]	IC50 [4] [µM]	IC50 [5] [µM]	IC50 [1] [µM]	Activity [6]	Activity [7]	inhibition [8]
COc1ccc(-c2c3c(c(O)c4cc(OC)c(OC)cc24)COC3=O)cc1OC	> 100	> 100	> 100	> 100	> 100	–	–	–
COc1cc2c(O)c3c(c(-c4cc(OC)c(OC)c(OC)c4)c2cc1OC)C(=O)OC3	97.2	23.2	> 100	> 100	> 100	–	–	–
COc1cc([C@@H]2c3cc4c(cc3[C@@H](O[C@@H]3O[C@@H]5CO[C@@H](C)O[C@H]5[C@H](O)[C@H]3O)[C@H]3COC(=O)[C@H]23)OCO4)cc(OC)c1O [ETOPOSIDE]	–	–	–	–	> 100	–	–	–
COc1cc2c(O)c3c(c(-c4ccccc4)c2cc1OC)C(=O)OC3	> 100	> 100	> 100	> 100	> 100	–	–	–
COc1ccc(OC)c(-c2c3c(c(O)c4cc(OC)c(OC)cc24)COC3=O)c1	> 100	> 100	> 100	> 100	> 100	–	–	–
COc1cc2c(O)c3c(c(-c4ccc(C)cc4)c2cc1OC)C(=O)OC3	> 100	15.1	> 100	> 100	> 100	–	–	–
COc1cc2c(O)c3c(c(-c4ccccc4OC)c2cc1OC)C(=O)OC3	> 100	> 100	> 100	22.8	> 100	–	–	–

Further lines, with some results ahead:

IC50 [2] [µM]	IC50 [3] [µM]	IC50 [4] [µM]	IC50 [5] [µM]	SMILES	IC50 [1] [µM]	Activity [6]	Activity [7]	inhibition [8]
> 100	20.6	> 100	> 100	COc1ccc(-c2c3c(c(O)c4cc(OC)c(OC)cc24)COC3=O)cc1	> 100	–	–	–
> 100	5.1	29.3	5.6	COc1cc(OC)cc(-c2c3c(c(O)c4cc(OC)c(OC)cc24)COC3=O)c1	> 100	Active	Active	Active
> 100	> 100	88.5	> 100	COc1cccc(-c2c3c(c(O)c4cc(OC)c(OC)cc24)COC3=O)c1	> 100	–	–	–
–	–	48.5	–	COc1cc2c(O)c3c(c(-c4ccc5c(c4)OCO5)c2cc1OC)C(=O)OC3 [DIPHYLLIN]	> 100	–	–	–
